Test results taken from patent US20160009686A1, “VEGFR3 INHIBITORS” (CANCER THERAPEUTICS CRC PTY LIMITED, priority 2012, published 2016).

What was measured:
[1] = biological target: VEGFR3 cytoplasmic domain (Homo sapiens, UniProt P35916); assay: VEGFR3 Biochemical Assay (AlphaScreen); conditions: GST-fusion enzyme, 500 μM ATP, 90 minutes at 30 degree Celsius (modified form in some cases: Hexa-His-fusion enzyme, 1 μM ATP); read-out: IC50
VEGFR3 = VEGFR3 (Homo sapiens, UniProt P35916); assay: VEGFR3 Phospho ELISA Assay; assay type: cell-based; conditions: HMVEC-dLyAD cells, treated for 1 hour, VEGFC stimulated; phospho VEGFR3 relative to Total VEGFR3
Method: Adult human dermal lymphatic microvascular endothelial cells (HMVEC-dLyAD) (Cat# CC-2810, Lonza) were seeded into clear-bottom, TC treated 12 well plates (Cat #665180, Greiner Bio-One) in EGM-2MV (Cat# CC-3202, Lonza) at 180,000 cells/well (volume 1 mL), and the plates incubated at 37° C. and 5% CO2 for 6 hours.
96 well Maxisorp immuno plates (Cat #439454, Nunc) were coated with 100 μL of Total VEGFR3 capture antibody (Part #841888, Human Total VEGFR3/FLT4 ELISA Kit, Cat # DYC3491, R&D Systems), or Phospho VEGFR3 Capture antibody (Part #841885, Human Phospho VEGFR3/FLT4 ELISA Kit, Cat# DYC2724, R&D Systems). The plates were covered and incubated at room temperature overnight.
The coating antibody was flicked out and the plates washed three times with Wash Buffer (Phosphate buffered saline (137 mM NaCl, 2.7 nM KCl, 8.1 nM Na2HPO4, 1.5 mL KH2PO4, pH 7.2-7.4), 0.05% Tween 20). 300 μL of blocking buffer (5% v/v Tween 20, 5% w/v sucrose in PBS) was then added to wells and plate incubated for 2 hours at room temperature. Blocking solution is flicked out and plates washed three times and tapped dry.
Compound dilution series were prepared in EBM-2 (Cat # CC-3156, Lonza)+0.1% BSA (Cat# A8412, Sigma) with constant 0.1% DMSO concentration. 439 μL of sample or vehicle control was added to the cell monolayers. Cells are treated for 1 hour at 37° C. and 5% CO2. 250 ng/mL Recombinant human VEGFC (Cat #2179-VC, R & D Systems) added to wells and plates incubated for an additional 10 minutes at 37° C. and 5% CO2.
(§1) The media and compounds were removed and the cell monolayer washed once in Dulbecco's Phosphate Buffered Saline (Cat #21600-044, Invitrogen). 130 μL of Lysis buffer added to wells and cell lysate harvested and transferred to tubes and stored on ice. Complete lysis buffer was prepared by adding 10 μL Protease Inhibitor Cocktail (Cat # P8340, Sigma-Aldrich), 10 μL PMSF (Phenylmethanesulfonyl fluoride, Cat # P7626, Sigma-Aldrich, prepared as 500 mM DMSO stock) per 1 mL of Phosphosafe™ Extraction Reagent (Cat #71296, Merck).
The harvested samples were then diluted 1:2 in IC Diluent #18 (5% Tween 20/PBS) and 100 μL transferred to the Total and Phospho VEGFR3 coated, blocked and washed 96 well plates and incubated for 2 hours at room temperature. The plates were then washed three times in wash buffer as described above and tapped dry. For detection of Total VEGFR3 100 μL of Detection antibody (Total VEGFR3 Detection Antibody Part#841888 in Total VEGFR3 kit) diluted in IC Diluent #1 (1% w/v BSA (Cat # A7906, Sigma-Aldrich)/PBS) was added to wells and the plate incubated for 2 hours at room temperature. The plate was then washed three times in wash buffer and tapped dry. 100 μL of streptavidin-HPR diluted in IC diluent #1 Streptavidin-HRP, Part #890803 in Total VEGFR3 kit) was added to wells and incubated at room temperature for 20 minutes followed by washing as described above. 100 μL Substrate solution (3,3′,5,5′-Tetramethylbenzidine (TMB) Liquid Substrate System for ELISA, Cat # T0440, Sigma-Aldrich) was added and the plate incubated for 20 minutes in the dark at room temperature followed by the addition of 50 μL stop solution (2 M H2SO4).
Total VEGFR3 levels were quantified using a Multiskan Ascent plate reader and Ascent software fitted with 450 nm filter.
For detection of Phospho VEGFR3, 100 μL of Detection antibody (Anti-Phospho-Tyrosine-HRP Detection Antibody, Part #841403 in Phospho VEGFR3 kit) was diluted in IC Diluent #1 (1% w/v BSA/PBS), added to the wells and the plate incubated for 2 hours at room temperature. The plate was then washed three times in wash buffer as described above and tapped dry. 100 μL Substrate solution (3,3′,5,5′-Tetramethylbenzidine (TMB) Liquid Substrate System for ELISA, Cat # T0440, Sigma-Aldrich) was added and the plate incubated for 20 minutes in the dark at room temperature followed by the addition of 50 μL stop solution (2 M H2SO4).

VEGFR2 = biological target: T1, VEGFR2 (Homo sapiens, UniProt P35968); assay: VEGFR2 Phospho ELISA Assay; assay type: cell-based; conditions: HUVEC, treated for 1 hour, VEGF stimulated; phospho VEGFR2 relative to Total VEGFR2
T1 construct: host or cells: HUVEC
T1 sequence (P35968 20-1356): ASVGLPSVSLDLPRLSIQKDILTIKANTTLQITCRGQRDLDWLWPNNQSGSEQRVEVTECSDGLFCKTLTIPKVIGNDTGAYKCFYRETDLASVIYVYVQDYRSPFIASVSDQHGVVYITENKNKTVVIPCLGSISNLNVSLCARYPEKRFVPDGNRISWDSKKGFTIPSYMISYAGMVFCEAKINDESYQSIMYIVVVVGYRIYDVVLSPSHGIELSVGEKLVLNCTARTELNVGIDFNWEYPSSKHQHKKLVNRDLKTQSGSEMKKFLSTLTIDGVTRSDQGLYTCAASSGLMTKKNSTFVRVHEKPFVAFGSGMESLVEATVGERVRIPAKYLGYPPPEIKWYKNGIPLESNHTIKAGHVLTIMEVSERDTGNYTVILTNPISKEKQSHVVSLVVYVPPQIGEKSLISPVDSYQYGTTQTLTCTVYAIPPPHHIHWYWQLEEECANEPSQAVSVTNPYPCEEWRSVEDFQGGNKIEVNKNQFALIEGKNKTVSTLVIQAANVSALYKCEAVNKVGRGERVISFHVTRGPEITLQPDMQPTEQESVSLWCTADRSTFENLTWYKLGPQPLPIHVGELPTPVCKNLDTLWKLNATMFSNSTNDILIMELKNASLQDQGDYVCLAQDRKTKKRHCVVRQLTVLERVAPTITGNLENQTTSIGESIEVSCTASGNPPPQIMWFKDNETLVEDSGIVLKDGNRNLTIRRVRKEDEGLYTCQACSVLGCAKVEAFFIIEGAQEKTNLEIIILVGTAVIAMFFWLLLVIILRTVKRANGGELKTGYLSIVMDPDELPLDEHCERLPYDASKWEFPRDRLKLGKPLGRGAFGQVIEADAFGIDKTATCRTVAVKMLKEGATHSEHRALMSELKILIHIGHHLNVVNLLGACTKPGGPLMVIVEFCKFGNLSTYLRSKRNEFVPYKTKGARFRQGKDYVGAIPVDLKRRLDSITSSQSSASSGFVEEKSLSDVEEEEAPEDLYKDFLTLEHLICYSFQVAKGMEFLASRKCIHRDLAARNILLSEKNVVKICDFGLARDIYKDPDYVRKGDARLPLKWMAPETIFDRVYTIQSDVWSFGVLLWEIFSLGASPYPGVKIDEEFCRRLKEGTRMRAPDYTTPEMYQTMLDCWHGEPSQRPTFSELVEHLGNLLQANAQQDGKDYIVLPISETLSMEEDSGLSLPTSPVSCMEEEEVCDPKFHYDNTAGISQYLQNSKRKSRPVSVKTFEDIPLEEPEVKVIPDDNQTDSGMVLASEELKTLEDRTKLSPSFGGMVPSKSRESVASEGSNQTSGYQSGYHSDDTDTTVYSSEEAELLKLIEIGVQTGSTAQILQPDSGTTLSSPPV
Method: Adult human umbilical vein endothelial cells (HUVEC) (Cat# CC-2519, Lonza) were seeded into clear-bottom, TC treated 12 well plates (Cat #665180, Greiner Bio-One) in EGM-2 (Cat# CC-3162, Lonza) at 180,000 cells/well (volume 1 mL), and the plates incubated at 37° C. and 5% CO2 for 6 hours.
96 well Maxisorp immuno plates (Cat #439454, Nunc) were coated with 100 μL of Total VEGFR2 capture antibody (Part #841434, Human Total VEGFR2/FLT4 ELISA Kit, Cat # DYC1780, R&D Systems), or Phospho VEGFR2 Capture antibody (Part #841419, Human Phospho VEGFR2/FLT4 ELISA Kit, Cat# DYC1766, R&D Systems). The plates were covered and incubated at room temperature overnight.
The coating antibody was flicked out and the plates washed three times with Wash Buffer (Phosphate buffered saline (137 mM NaCl, 2.7 nM KCl, 8.1 nM Na2HPO4, 1.5 mL KH2PO4, pH 7.2-7.4), 0.05% Tween 20). 300 μL of Blocking buffer (1% v/v BSA (Cat# A8412, Sigma) in PBS) was then added to wells and plate incubated for 2 hours at room temperature. Blocking solution is flicked out and plates washed three times and tapped dry.
Compound dilution series were prepared in EBM-2 (Cat # CC-3156, Lonza)+0.1% BSA (Cat# A8412, Sigma) with constant 0.1% DMSO concentration. 427.5 μL of sample or vehicle control was added to the cell monolayers. Cells are treated for 1 hour at 37° C. and 5% CO2. 50 ng/mL Recombinant human VEGF (Cat #293-VC, R & D Systems) added to wells and plates incubated for an additional 10 minutes at 37° C. and 5% CO2.
as §1
The plates were then washed three times in wash buffer as described above and tapped dry.
For detection of Total VEGFR2 100 μL of Detection antibody (Total VEGFR2 Detection Antibody Part#841435 in Total VEGFR2 kit) diluted in IC Diluent #14 (20 mM Tris, 137 mM CaCl2, 0.05% Tween20, 0.1% BSA) was added to wells and the plate incubated for 2 hours at room temperature. The plate was then washed three times in wash buffer and tapped dry. 100 μL of streptavidin-HPR diluted in IC diluent #14 Streptavidin-HRP, Part #890803 in Total VEGFR2 kit) was added to wells and incubated at room temperature for 20 minutes followed by washing as described above. 100 μL Substrate solution (3,3′,5,5′-Tetramethylbenzidine (TMB) Liquid Substrate System for ELISA, Cat # T0440, Sigma-Aldrich) was added and the plate incubated for 20 minutes in the dark at room temperature followed by the addition of 50 μL stop solution (2 M H2SO4).
Total VEGFR2 levels were quantified using a Multiskan Ascent plate reader and Ascent software fitted with 450 nm filter.
For detection of Phospho VEGFR2, 100 μL of Detection antibody (Anti-Phospho-Tyrosine-HRP Detection Antibody, Part #841403 in Phospho VEGFR2 kit) was diluted in IC Diluent 14 (20 mM Tris, 137 mM CaCl2, 0.05% Tween20, 0.1% BSA), was added to the wells and the plate incubated for 2 hours at room temperature. The plate was then washed three times in wash buffer as described above and tapped dry. 100 μL Substrate solution (3,3′,5,5′-Tetramethylbenzidine (TMB) Liquid Substrate System for ELISA, Cat # T0440, Sigma-Aldrich) was added and the plate incubated for 20 minutes in the dark at room temperature followed by the addition of 50 μL stop solution (2 M H2SO4).
Phospho VEGFR2 levels were quantified using a Multiscan ascent plate reader and ascent software fitted with 450 nm filter.
IC50 values are determined by first calculating the level of phospho VEGFR2 relative to Total VEGFR2 according to the following formula:

Sequence of VEGFR3 (P35916 25-1363): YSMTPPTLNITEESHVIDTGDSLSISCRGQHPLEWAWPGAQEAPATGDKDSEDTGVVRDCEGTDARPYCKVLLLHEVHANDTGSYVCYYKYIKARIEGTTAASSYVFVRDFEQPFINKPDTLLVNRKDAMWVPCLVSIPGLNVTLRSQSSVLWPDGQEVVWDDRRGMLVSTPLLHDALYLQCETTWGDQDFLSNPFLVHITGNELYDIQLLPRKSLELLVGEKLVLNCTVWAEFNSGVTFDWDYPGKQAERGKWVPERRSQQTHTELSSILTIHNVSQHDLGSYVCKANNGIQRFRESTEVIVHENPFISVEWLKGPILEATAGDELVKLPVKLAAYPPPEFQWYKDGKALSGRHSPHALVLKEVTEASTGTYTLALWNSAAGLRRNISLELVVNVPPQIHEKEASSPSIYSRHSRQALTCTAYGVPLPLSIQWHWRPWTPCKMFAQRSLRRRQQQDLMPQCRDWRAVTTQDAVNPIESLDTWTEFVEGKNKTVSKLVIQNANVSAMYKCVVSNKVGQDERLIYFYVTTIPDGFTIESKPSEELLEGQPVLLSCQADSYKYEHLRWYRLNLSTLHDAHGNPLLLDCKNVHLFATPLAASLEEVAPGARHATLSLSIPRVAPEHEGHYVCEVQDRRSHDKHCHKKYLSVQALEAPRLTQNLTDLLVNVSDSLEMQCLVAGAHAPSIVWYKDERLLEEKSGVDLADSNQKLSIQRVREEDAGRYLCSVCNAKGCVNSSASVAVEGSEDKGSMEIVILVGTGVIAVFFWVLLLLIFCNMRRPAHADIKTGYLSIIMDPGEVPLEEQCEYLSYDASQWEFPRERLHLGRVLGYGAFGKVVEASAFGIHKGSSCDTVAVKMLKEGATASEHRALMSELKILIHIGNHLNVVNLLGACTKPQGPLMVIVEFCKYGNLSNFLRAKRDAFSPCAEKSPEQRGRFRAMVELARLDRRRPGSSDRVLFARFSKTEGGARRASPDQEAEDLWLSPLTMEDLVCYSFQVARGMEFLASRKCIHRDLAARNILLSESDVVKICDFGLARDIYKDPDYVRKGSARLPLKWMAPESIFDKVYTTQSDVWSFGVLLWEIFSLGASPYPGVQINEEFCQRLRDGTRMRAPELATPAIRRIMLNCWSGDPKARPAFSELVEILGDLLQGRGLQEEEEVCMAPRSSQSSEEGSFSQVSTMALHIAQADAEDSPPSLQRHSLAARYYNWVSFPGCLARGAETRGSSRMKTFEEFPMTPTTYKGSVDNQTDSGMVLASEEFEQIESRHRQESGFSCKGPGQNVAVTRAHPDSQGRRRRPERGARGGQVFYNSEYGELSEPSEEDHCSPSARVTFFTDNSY
Sequence of VEGFR3 cytoplasmic domain (P35916 798-1298 isoform P35916-1): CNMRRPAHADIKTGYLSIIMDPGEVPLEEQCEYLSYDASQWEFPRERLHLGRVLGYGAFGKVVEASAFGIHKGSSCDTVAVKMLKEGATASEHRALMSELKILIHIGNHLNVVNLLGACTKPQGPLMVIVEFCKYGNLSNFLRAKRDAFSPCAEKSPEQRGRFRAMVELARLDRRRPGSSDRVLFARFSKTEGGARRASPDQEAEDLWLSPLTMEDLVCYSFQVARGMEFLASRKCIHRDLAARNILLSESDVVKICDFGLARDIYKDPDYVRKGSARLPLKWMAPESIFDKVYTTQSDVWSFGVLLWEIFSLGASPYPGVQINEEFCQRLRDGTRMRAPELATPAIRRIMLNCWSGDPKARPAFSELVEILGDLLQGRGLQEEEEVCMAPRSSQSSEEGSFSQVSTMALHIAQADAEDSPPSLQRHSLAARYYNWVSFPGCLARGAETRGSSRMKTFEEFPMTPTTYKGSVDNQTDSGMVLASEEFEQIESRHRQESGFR

| Structure (SMILES) | IC50 [1] [nM] | IC50 (VEGFR3) [nM] | IC50 (VEGFR2) [nM] |
| --- | --- | --- | --- |
| CCC(C(N)=O)c1ccccc1CCc1nc(Nc2ccc(C3CCNCC3)cc2)ncc1C(F)(F)F (single isomer, unassigned) [Compound 1-1A, 2-(2-(2-(2-((4-(Piperidin-4-yl)phenyl)amino)-5-(trifluoromethyl)pyrimidin-4-yl)ethyl)phenyl)butanamide] | 103 | 329 |  |
| CCC(C(N)=O)c1ccccc1CCc1nc(Nc2ccc(C3CCNCC3)cc2)ncc1C(F)(F)F (single isomer, unassigned) [Compound 1-2A, 2-(2-(2-(2-((4-(Piperidin-4-yl)phenyl)amino)-5-(trifluoromethyl)pyrimidin-4-yl)ethyl)phenyl)butanamide] | 75 | 315 |  |
| CC(C(N)=O)c1ccccc1CCc1nc(Nc2cnn(C3CCN(C)CC3)c2)ncc1C(F)(F)F (single isomer, unassigned) [Compound 57-1A, 2-(2-(2-(2-((1-(1-Methylpiperidin-4-yl)-1H-pyrazol-4-yl)amino)-5-(trifluoromethyl)pyrimidin-4-yl)ethyl)phenyl)propanamide] |  |  | 518 |
| NC(=O)C1(c2ccccc2CCc2nc(Nc3ccc(C4CCNCC4)cc3)ncc2C(F)(F)F)CC1 [Compound 2, 1-(2-(2-(2-((4-(Piperidin-4-yl)phenyl)amino)-5-(trifluoromethyl)pyrimidin-4-yl)ethyl)phenyl)cyclopropanecarboxamide] | 10 | 26 | 283 |
| CN1CCC(c2ccc(Nc3ncc(C(F)(F)F)c(CCc4ccccc4C4(C(N)=O)CC4)n3)cc2)CC1 [Compound 3, 1-(2-(2-(2-((4-(1-methylpiperidin-4-yl)phenyl)amino)-5-(trifluoromethyl)pyrimidin-4-yl)ethyl)phenyl)cyclopropanecarboxamide] | 9 | 27 | 1790 |
| NC(=O)C1(c2ccccc2CCc2nc(Nc3ccc(C4CCNCC4)nc3)ncc2C(F)(F)F)CC1 [Compound 5, 1-(2-(2-(2-((6-(Piperidin-4-yl)pyridin-3-yl)amino)-5-(trifluoromethyl)pyrimidin-4-yl)ethyl)phenyl)cyclopropanecarboxamide] | 28 | 51 | 4080 |
| NC(=O)C1(c2ccccc2CCc2nc(Nc3cccnc3)ncc2Cl)CC1 [Compound 6, 1-(2-(2-(5-chloro-2-(pyridin-3-ylamino)pyrimidin-4-yl)ethyl)phenyl)cyclopropanecarboxamide] | 8 | 17 | 6610 |
| NC(=O)C1(c2ccccc2CCc2nc(Nc3ccc(C4CCNCC4)cc3)ncc2Cl)CC1 [Compound 7, 1-(2-(2-(5-chloro-2-((4-(piperidin-4-yl)phenyl)amino)pyrimidin-4-yl)ethyl)phenyl)cyclopropanecarboxamide] | 10 | 38 |  |
| CN1CCC(c2ccc(Nc3ncc(Cl)c(CCc4ccccc4C4(C(N)=O)CC4)n3)cc2)CC1 [Compound 8, 1-(2-(2-(5-chloro-2-((4-(1-methylpiperidin-4-yl)phenyl)amino)pyrimidin-4-yl)ethyl)phenyl)cyclopropanecarboxamide] | 10 | 19 | 897 |
| NC(=O)C1(c2ccccc2CCc2nc(Nc3ccc(C(F)(F)F)nc3)ncc2Cl)CC1 [Compound 9, 1-(2-(2-(5-chloro-2-((6-(trifluoromethyl)pyridin-3-yl)amino)pyrimidin-4-yl)ethyl)phenyl)cyclopropanecarboxamide] | 26 | 75 | […] |
| Cn1cc(Nc2ncc(Cl)c(CCc3ccccc3C3(C(N)=O)CC3)n2)cn1 [Compound 13, 1-(2-(2-(5-Chloro-2-((1-methyl-1H-pyrazol-4-yl)amino)pyrimidin-4-yl)ethyl)phenyl)cyclopropanecarboxamide] | 4 | 9 |  |
| NC(=O)C1(c2ccccc2CCc2nc(Nc3cnn(C4CNC4)c3)ncc2Cl)CC1 [Compound 14, 1-(2-(2-(2-((1-(Azetidin-3-yl)-1H-pyrazol-4-yl)amino)-5-chloropyrimidin-4-yl)ethyl)phenyl)cyclopropanecarboxamide] | 6 | 30 | 357 |
| NC(=O)C1(c2ccccc2CCc2nc(Nc3ccc(C4CCNCC4)nc3)ncc2Cl)CC1 [Compound 15, 1-(2-(2-(5-Chloro-2-((6-(piperidin-4-yl)pyridin-3-yl)amino)pyrimidin-4-yl)ethyl)phenyl)cyclopropanecarboxamide] | 11 | 51 | 2000 |
| CC(NC(=O)OC(C)(C)C)c1ccc(Nc2ncc(Cl)c(CCc3ccccc3C3(C(N)=O)CC3)n2)cc1 (centres unmarked) [Compound 24, tert-Butyl (1-(4-((4-(2-(1-carbamoylcyclopropyl)phenethyl)-5-chloropyrimidin-2-yl)amino)phenyl)ethyl)carbamate] | 2 | 25 |  |
| CC(N)c1ccc(Nc2ncc(Cl)c(CCc3ccccc3C3(C(N)=O)CC3)n2)cc1 (centres unmarked) [Compound 24A, 1-(2-(2-(2-((4-(1-Aminoethyl)phenyl)amino)-5-chloropyrimidin-4-yl)ethyl)phenyl)cyclopropanecarboxamide] | 14 |  | 209 |
| Cc1cnc(Nc2cnn(C)c2)nc1CCc1ccccc1C(C)C(N)=O (centres unmarked) [Compound 51, 2-(2-(2-(5-Methyl-2-((1-methyl-1H-pyrazol-4-yl)amino)pyrimidin-4-yl)ethyl)phenyl)propanamide] | 15 | 526 |  |
| COc1ccc(Nc2ncc(C(F)(F)F)c(CCc3ccccc3C3(C(N)=O)CC3)n2)cn1 [Compound 64, 1-(2-(2-(2-((6-Methoxypyridin-3-yl)amino)-5-(trifluoromethyl)pyrimidin-4-yl)ethyl)phenyl)cyclopropanecarboxamide] | 8 | 394 |  |
| CN1CCC(n2cc(Nc3ncc(C(F)(F)F)c(CCc4ccccc4C4(C(N)=O)CC4)n3)cn2)CC1 [Compound 67, 1-(2-(2-(2-((1-(1-Methylpiperidin-4-yl)-1H-pyrazol-4-yl)amino)-5-(trifluoromethyl)pyrimidin-4-yl)ethyl)phenyl)cyclopropanecarboxamide] | 7 |  |  |
| CN1CCC(c2ccc(Nc3ncc(C(F)(F)F)c(CCc4ccccc4C4(C(N)=O)CC4)n3)cn2)CC1 [Compound 69, 1-(2-(2-(2-((6-(1-Methylpiperidin-4-yl)pyridin-3-yl)amino)-5-(trifluoromethyl)pyrimidin-4-yl)ethyl)phenyl)cyclopropanecarboxamide] | 63 |  |  |
| CC(N)c1ccc(Nc2ncc(C(F)(F)F)c(CCc3ccccc3C3(C(N)=O)CC3)n2)cc1 (centres unmarked) [Compound 70A, 1-(2-(2-(2-(4-(1-Aminoethyl)phenylamino)-5-(trifluoromethyl)pyrimidin-4-yl)ethyl)phenyl)cyclopropanecarboxamide] | 22 |  |  |
| CC(=O)NC(C)c1ccc(Nc2ncc(C(F)(F)F)c(CCc3ccccc3C3(C(N)=O)CC3)n2)cc1 (centres unmarked) [Compound 71, 1-(2-(2-(2-(4-(1-Acetamidoethyl)phenylamino)-5-(trifluoromethyl)pyrimidin-4-yl)ethyl)phenyl)cyclopropanecarboxamide] | 10 |  |  |
| NC(=O)C1(c2ccccc2CCc2nc(Nc3cnn(CCO)c3)ncc2Cl)CC1 [Compound 76] | 4 |  |  |
| COCCn1cc(Nc2ncc(Cl)c(CCc3ccccc3C3(C(N)=O)CC3)n2)cn1 [Compound 77] | 3 |  |  |
